Assay results published in patent US12514882B2, “Faecalibacterium prausnitzii strain EB-FPDK11 and use thereof” (ENTEROBIOME INC., priority 2020, dated 2026).
In brackets after ≈: the same amount, converted by molar mass.

Key:
Format in all cases: cell-based
[1] = system: Faecalibacterium prausnitzii DSM 17677^T; test: MIC, liquid medium microdilution (CLSI), standard strain; details: for MIC breakpoint category (S/I/R): DSM 17677^T
[2] = system: Faecalibacterium prausnitzii EB-FPDK11 strain; test: MIC, liquid medium microdilution (CLSI), EB-FPDK11; details: for MIC breakpoint category (S/I/R): EB-FPDK11; for resistance or susceptibility of the EB-FPDK11 strain to the agent (in words): text summary of Table 4
[3] = system: Bacteroides thetaiotaomicron ATCC 29741; test: MIC, liquid medium microdilution (CLSI), QC strain; details: ATCC29741

Cc1ncc([N+](=O)[O-])n1CCO [MTZ, metronidazole]
MIC breakpoint category (S/I/R) ([1]; MTZ breakpoints): S (≤8)
MIC breakpoint category (S/I/R) ([2]; MTZ breakpoints): 5
resistance or susceptibility of the EB-FPDK11 strain to the agent (in words) [2]: susceptibility

O=C(N[C@H](CO)[C@H](O)c1ccc([N+](=O)[O-])cc1)C(Cl)Cl [CHL, chloramphenicol]
MIC breakpoint category (S/I/R) ([1]; CHL breakpoints): R (≥32)
MIC breakpoint category (S/I/R) ([2]; CHL breakpoints): S (≤8)
resistance or susceptibility of the EB-FPDK11 strain to the agent (in words) [2]: susceptibility

CCC[C@@H]1C[C@@H](C(=O)N[C@@H]([C@H]2O[C@H](SC)[C@H](O)[C@@H](O)[C@H]2O)[C@H](C)Cl)N(C)C1 [CLI, clindamycin]
MIC breakpoint category (S/I/R) ([1]; CLI breakpoints): (S) (≤2)
MIC breakpoint category (S/I/R) ([2]; CLI breakpoints): (S) (≤2)

CO/N=C(\C(=O)N[C@@H]1C(=O)N2C(C(=O)O)=CCS[C@H]12)c1csc(N)n1 [CTZ, ceftizoxime]
MIC breakpoint category (S/I/R) ([1]; CTZ breakpoints): I (64)
MIC breakpoint category (S/I/R) ([2]; CTZ breakpoints): R (≥128)
resistance or susceptibility of the EB-FPDK11 strain to the agent (in words) [2]: resistance

Piperacillin-tazobactam [PTZ]
MIC breakpoint category (S/I/R) ([1]; PTZ breakpoints): R (≥128/4)
MIC ([1]; test strain DSM 17677^T): 256/4
MIC breakpoint category (S/I/R) ([2]; PTZ breakpoints): R (≥128/4)
MIC ([2]; test strain EB-FPDK11): 256/4
resistance or susceptibility of the EB-FPDK11 strain to the agent (in words) [2]: resistance

C[C@@H](O)[C@H]1C(=O)N2C(C(=O)O)=C(S[C@@H]3CN[C@H](C(=O)N(C)C)C3)[C@H](C)[C@H]12 [MEM, meropenem]
MIC breakpoint category (S/I/R) ([1]; MEM breakpoints): R (≥16)
MIC breakpoint category (S/I/R) ([2]; MEM breakpoints): R (≥16)
resistance or susceptibility of the EB-FPDK11 strain to the agent (in words) [2]: resistance
MIC [3]: 0.5 µg/mL (≈ 1.3 µM)

COc1c(N2C[C@@H]3CCCN[C@@H]3C2)c(F)cc2c(=O)c(C(=O)O)cn(C3CC3)c12 [MXF, moxifloxacin]
MIC breakpoint category (S/I/R) ([1]; MXF breakpoints): R (≥8)
MIC breakpoint category (S/I/R) ([2]; MXF breakpoints): R (≥8)
